Experimental data as given in patent US8574871B2, “Genetically modified yeasts for the production of homogenous glycoproteins” (GLYCODE, priority 2007, dated 2013).

Key:
[1] = test system: alpha-1,2-mannosidase I; assay: Mannosidase activity assay in yeast microsomes, with or without DMJ; assay type: biochemical, C. Elegans; settings: 120 μM DMJ, triplicate (FIG. 6)
Method: (§1) Mannosidase activity is measured by incubating for 4 hours at 37° C., with 4 mM of p-nitrophenyl-α-D-mannopyranoside with 100-200 μg of proteins (from total proteins or sub-cellular fractions) in 0.1 M of PBS, pH 6.5+/−120 μM DMJ (alpha-1,2-mannosidase I inhibitor) +/−12 μM SW (specific inhibitor of mannosidase II). Absorbance is measured at 405 nm.
The Adèle and Edgar yeasts, positive for the insertion of the expression cassette of mannosidase I in the gene URA3, are tested for their mannosidase I biochemical activity. […] The experiment was conducted in triplicate. We may observe in the wild S. cerevisiae and S. pombe strains, a mannosidase activity non-inhibited by DMJ.

[2] = target: T1, mannosidase II (Mus musculus, UniProt P27046, V673G); assay: Mannosidase activity assay in Golgian yeast fractions, with or without swainsonine; assay type: biochemical; settings: 12 μM SW (FIG. 9)
T1 construct: Amplification of a 3,453 by fragment; expressed in transfected cells; host or cells: S. cerevisiae and S. pombe with the TEF-promoter cassette integrated in LEU2 (strains Anaïs / Enrique); Golgi fractions
T1 sequence (P27046 1-1150 V673G): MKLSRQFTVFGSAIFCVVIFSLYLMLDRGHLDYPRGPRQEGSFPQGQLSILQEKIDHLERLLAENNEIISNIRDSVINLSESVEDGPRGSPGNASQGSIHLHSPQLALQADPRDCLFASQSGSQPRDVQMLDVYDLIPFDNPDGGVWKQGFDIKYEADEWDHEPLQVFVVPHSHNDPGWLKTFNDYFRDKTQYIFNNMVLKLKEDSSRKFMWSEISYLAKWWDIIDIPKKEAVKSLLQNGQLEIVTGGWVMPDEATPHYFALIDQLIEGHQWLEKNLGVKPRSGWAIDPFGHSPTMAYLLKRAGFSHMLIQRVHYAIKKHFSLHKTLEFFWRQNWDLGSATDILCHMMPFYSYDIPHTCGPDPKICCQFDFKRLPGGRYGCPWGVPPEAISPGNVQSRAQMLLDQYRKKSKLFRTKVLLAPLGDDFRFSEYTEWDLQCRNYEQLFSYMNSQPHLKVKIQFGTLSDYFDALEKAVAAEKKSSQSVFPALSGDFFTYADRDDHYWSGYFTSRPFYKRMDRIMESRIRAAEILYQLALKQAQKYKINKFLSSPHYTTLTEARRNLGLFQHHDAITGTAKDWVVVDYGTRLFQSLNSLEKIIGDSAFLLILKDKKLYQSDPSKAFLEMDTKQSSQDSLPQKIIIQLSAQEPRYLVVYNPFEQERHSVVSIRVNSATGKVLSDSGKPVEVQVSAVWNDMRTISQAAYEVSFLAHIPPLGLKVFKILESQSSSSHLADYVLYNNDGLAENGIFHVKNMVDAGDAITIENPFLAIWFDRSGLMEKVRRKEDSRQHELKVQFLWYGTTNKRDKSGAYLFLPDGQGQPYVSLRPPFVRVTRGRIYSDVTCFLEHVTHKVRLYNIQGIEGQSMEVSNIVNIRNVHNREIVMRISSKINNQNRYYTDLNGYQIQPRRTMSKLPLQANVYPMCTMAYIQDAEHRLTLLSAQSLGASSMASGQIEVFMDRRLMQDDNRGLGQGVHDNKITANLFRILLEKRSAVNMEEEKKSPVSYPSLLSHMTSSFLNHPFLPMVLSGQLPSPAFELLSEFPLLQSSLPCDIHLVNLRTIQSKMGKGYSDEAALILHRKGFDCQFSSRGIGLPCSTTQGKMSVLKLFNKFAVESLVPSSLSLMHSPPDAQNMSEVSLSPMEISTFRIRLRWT
Method: as §1
According to FIG. 9, we may observe in the parent S. cerevisiae and S. pombe strains a mannosidase activity insensitive to the inhibitory action of swainsonine. […] Further as, the measured mannosidase II activity is detected in Golgian yeast fractions, we may infer that this enzyme is properly expressed in the secretion route at the Golgian system.

| SMILES | inhibition of mannosidase activity by DMJ ([1]; selected S. cerevisiae and S. pombe strains with mannosidase I cassette) | inhibition of mannosidase activity by DMJ ([1]; wild S. cerevisiae and S. pombe strains) | inhibition of mannosidase activity by swainsonine ([2]; parent S. cerevisiae and S. pombe strains) | inhibition of mannosidase activity by swainsonine ([2]; selected S. cerevisiae and S. pombe strains with mannosidase II cassette) |
| --- | --- | --- | --- | --- |
| OC[C@H]1NC[C@@H](O)[C@@H](O)[C@@H]1O [DMJ, deoxymannojirimycin] | significant inhibition | non-inhibited | – | – |
| O[C@H]1[C@H]2[C@H](O)CCCN2C[C@H]1O [swainsonine] | – | – | insensitive | significant inhibition |
